The results in this text go back to US7214686B2, “Pharmaceutical compositions and methods for effecting dopamine release” (priority 1997, dated 2007).

Data set [1] deals with striatal synaptosomes (dopamine release). As to the kind of experiment: cells. To be noted: for EC50: read-out: Dopamine Release EC50. In kind it is cell-based, rat.
The target in data set [2] is T1, human muscle nAChR subtype (TE671/RD cells) (Homo sapiens, UniProt P02708+P07510+Q07001).
T1 construct: These cells express receptors that have pharmacological; endogenous in cells; host or cells: TE671/RD (human embryonal rhabdomyosarcoma)
Kind of data set: cell-based. In kind it is cell-based. The note with it: for Muscle Effect Ecmax: maximal activation as a percentage of that induced by L-nicotine. As to the method:
Cells were cultured in Dulbecco's modified Eagle's medium (Gibco/BRL) with 10% horse serum (Gibco/BRL), 5% fetal bovine serum (HyClone, Logan Utah), 1 mM sodium pyruvate, 4 mM L-Glutamine, and 50,000 units penicillin-streptomycin (Irvine Scientific). When cells were 80% confluent, they were plated to 6 well polystyrene plates (Costar). Experiments were conducted when the cells reached 100% confluency.
On the day of the experiment, growth media was gently removed from the well and growth media containing ^86Rubidium chloride (10^6 μCi/mL) was added to each well. Cells were incubated at 37° C. for a minimum of 3 h. […] Next, cells were exposed to either 100 μM of test compound, 100 μM of L-nicotine (Acros Organics) or buffer alone for 4 min. Following the exposure period, the supernatant containing the released ^86Rb^+ was removed and transferred to scintillation vials. Scintillation fluid was added and released radioactivity was measured by liquid scintillation counting.
Within each assay, each point had 2 replicates, which were averaged. The amount of ^86Rb^+ release was compared to both a positive control (100 μM L-nicotine) and a negative control (buffer alone) to determine the percent release relative to that of L-nicotine.
(§1) When appropriate, dose-response curves of test compound were determined. The maximal activation for individual compounds (Emax) was determined as a percentage of the maximal activation induced by L-nicotine. The compound concentration resulting in half maximal activation (EC50) of specific ion flux was also determined.

For data set [3], the target named is T2, rat ganglionic nAChR subtype (PC12 cells) (Rattus norvegicus, UniProt P04757+P12392).
T2 construct: These cells express ganglion-like nAChRs; endogenous in cells; host or cells: PC12 (rat pheochromocytoma)
As to the kind of experiment: cell-based. In kind it is cell-based. As to the method:
Activation of rat ganglion nAChRs was established on the pheochromocytoma clonal line PC12, which is a continuous clonal cell line of neural crest origin, derived from a tumor of the rat adrenal medulla.
Cells were cultured in Dulbecco's modified Eagle's medium (Gibco/BRL) with 10% horse serum (Gibco/BRL), 5% fetal bovine serum (HyClone, Logan Utah), 1 mM sodium pyruvate, 4 mM L-Glutamine, and 50,000 units penicillin-streptomycin (Irvine Scientific). When cells were 80% confluent, they were plated to 6 well Nunc plates (Nunclon) and coated with 0.03% poly-L-lysine (Sigma, dissolved in 100 mM boric acid). Experiments were conducted when the cells reached 80% confluency.
On the day of the experiment, growth media was gently removed from the well and growth media containing ^86Rubidium chloride (10^6 μCi/mL) was added to each well. Cells were incubated at 37° C. for a minimum of 3 h. […] Next, cells were exposed to either 100 μM of test compound, 100 μM of nicotine or buffer alone for 4 min. Following the exposure period, the supernatant containing the released ^86Rb^+ was removed and transferred to scintillation vials. Scintillation fluid was added and released radioactivity was measured by liquid scintillation counting.
Within each assay, each point had 2 replicates, which were averaged. The amount of ^86Rb^+ release was compared to both a positive control (100 μM nicotine) and a negative control (buffer alone) to determine the percent release relative to that of L-nicotine.
as §1

Data set [4] in a line: physchem.
Data set [5] deals with T3, α4β2 nAChR subtype (Rattus norvegicus, UniProt P09483+P12390).
T3 construct: The cerebral cortex was removed and placed in 20 volumes (weight:volume) of ice-old preparative buffer; from tissue; host or cells: rat cerebral cortex membranes
Kind of data set: biochemical. To be noted: inhibition of [3H]nicotine binding, rat cerebral cortex membranes.

Where [6] appears, read: maximal activation as a percentage of that induced by L-nicotine.
Setting [7] is: rat striatal synaptosomes, [3H]dopamine release.
The mark [8] stands for this setting: 86Rb+ efflux, read-out: Ganglion Effect EC50.

Read-outs that look alike come from different tables or passages of the source.

T1 sequence (P02708 21-457): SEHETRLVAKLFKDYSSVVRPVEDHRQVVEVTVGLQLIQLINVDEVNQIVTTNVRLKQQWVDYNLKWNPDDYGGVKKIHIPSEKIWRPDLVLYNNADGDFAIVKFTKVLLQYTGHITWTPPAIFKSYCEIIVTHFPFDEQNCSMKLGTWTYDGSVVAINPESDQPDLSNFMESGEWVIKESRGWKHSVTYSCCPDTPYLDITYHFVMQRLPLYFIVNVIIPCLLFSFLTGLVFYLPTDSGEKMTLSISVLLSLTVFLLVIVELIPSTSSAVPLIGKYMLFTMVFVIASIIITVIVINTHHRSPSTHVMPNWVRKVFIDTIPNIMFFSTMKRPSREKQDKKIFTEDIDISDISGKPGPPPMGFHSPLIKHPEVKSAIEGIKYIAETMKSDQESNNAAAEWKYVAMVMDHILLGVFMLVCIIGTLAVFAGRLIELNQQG
T1 sequence (P11230 24-501 partner): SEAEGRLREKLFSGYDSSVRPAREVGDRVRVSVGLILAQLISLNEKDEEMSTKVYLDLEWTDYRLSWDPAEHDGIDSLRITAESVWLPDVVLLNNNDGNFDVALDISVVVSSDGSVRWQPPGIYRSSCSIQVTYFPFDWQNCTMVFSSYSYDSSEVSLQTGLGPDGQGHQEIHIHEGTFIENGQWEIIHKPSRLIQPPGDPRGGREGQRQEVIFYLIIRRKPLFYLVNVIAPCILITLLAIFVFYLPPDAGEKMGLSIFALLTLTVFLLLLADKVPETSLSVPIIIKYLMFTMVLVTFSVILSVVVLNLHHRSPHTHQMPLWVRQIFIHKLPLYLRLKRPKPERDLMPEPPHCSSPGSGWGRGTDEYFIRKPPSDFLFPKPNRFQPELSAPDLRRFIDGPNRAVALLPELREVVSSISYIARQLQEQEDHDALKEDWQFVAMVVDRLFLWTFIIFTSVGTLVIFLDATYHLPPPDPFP
T1 sequence (Q07001 22-517): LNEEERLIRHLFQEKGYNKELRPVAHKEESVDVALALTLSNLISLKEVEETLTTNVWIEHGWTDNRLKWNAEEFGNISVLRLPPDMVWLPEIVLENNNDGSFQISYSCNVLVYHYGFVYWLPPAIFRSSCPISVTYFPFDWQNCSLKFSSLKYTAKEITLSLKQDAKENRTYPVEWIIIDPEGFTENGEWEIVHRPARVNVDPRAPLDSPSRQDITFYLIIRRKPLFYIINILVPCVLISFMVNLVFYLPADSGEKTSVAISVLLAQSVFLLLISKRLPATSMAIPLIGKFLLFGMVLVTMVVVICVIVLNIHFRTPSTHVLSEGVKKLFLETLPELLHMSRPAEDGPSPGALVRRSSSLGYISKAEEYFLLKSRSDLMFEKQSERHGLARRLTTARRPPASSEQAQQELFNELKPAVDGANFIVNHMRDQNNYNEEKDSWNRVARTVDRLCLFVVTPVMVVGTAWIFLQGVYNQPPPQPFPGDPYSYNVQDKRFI
T1 sequence (P07510 23-517): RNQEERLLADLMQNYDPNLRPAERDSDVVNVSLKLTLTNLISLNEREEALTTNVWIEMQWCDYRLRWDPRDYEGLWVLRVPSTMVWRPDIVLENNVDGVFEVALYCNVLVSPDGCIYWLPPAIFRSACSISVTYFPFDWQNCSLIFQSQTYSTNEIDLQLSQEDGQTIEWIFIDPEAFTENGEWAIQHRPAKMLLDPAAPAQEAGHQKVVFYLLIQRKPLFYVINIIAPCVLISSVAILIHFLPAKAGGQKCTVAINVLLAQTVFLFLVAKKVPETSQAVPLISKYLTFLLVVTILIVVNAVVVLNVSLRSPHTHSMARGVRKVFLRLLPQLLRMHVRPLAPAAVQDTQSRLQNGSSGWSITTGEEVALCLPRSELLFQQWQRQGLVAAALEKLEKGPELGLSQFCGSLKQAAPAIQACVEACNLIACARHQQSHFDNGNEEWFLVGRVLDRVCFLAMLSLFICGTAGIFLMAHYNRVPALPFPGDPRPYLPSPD
T2 sequence (P04757 26-499): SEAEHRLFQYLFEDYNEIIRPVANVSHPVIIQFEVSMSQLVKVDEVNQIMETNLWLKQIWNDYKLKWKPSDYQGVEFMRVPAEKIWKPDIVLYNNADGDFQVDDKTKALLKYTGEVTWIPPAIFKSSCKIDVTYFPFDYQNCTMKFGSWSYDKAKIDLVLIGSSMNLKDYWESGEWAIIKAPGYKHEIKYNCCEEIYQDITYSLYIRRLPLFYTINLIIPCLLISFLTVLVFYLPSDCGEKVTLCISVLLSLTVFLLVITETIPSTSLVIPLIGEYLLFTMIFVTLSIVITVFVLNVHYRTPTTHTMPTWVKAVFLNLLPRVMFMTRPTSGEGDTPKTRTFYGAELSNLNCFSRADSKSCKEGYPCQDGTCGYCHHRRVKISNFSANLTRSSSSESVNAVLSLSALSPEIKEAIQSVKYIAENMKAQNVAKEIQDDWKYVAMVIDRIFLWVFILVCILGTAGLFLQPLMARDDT
T2 sequence (P12392 21-495): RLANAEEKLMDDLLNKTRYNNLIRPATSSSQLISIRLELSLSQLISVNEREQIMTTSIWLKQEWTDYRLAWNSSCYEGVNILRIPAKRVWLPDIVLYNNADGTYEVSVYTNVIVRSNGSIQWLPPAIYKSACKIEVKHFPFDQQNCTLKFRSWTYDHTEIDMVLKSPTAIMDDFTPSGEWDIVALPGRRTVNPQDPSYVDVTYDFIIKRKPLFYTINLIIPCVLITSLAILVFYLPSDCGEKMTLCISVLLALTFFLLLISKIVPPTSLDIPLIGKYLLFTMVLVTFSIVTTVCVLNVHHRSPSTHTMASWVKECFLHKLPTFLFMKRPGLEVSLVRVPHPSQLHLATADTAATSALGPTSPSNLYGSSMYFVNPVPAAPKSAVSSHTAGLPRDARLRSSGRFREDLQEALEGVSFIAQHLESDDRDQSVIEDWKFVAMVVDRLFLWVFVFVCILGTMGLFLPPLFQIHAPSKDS
T3 sequence (P09483 31-630): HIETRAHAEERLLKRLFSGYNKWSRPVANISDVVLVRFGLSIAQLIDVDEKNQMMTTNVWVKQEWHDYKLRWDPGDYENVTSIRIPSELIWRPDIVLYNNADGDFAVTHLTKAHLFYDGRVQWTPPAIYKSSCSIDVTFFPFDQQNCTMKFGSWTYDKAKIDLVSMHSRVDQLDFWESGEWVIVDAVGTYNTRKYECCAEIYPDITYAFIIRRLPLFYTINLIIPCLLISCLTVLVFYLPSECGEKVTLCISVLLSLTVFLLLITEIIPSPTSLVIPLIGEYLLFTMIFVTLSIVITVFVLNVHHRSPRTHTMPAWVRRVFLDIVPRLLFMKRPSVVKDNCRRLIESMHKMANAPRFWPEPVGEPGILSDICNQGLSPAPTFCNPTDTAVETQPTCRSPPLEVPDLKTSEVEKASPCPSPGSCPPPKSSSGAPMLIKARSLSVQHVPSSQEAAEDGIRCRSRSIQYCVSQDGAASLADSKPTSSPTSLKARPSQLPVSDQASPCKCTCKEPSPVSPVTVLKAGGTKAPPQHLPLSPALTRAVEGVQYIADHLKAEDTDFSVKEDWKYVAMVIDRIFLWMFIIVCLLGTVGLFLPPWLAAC
T3 sequence (P12390 25-500): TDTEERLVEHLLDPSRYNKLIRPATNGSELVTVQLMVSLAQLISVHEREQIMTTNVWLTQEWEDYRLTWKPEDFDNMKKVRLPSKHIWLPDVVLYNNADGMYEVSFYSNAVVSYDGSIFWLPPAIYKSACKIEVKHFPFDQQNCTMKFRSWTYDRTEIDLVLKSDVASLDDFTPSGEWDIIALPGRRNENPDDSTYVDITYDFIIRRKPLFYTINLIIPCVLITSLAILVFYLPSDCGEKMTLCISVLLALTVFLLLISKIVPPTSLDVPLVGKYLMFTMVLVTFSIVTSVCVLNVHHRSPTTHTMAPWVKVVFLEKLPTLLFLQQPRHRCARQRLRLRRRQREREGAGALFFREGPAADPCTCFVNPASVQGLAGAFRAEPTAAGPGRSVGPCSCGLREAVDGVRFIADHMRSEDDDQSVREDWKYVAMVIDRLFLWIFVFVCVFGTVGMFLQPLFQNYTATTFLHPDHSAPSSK

Take `CCOc1cncc(C2CC3CCN2CC3)c1.Cl.Cl` (stereo not drawn) [Sample No. 7, 2-(5-ethoxy-3-pyridyl)-1-azabicyclo[2.2.2]octane dihydrochloride]: the concentration giving a half-maximal response (EC50) in data set [1] (Rattus norvegicus) was determined as 5 nM; in data set [3], 10000 nM. Also, in data set [1] (setting [6]), the “Dopamine Release Ecmax” value came out at 40. Further, in data set [2], the “Muscle Effect Ecmax” value is 137. The “Ganglion Effect Ecmax” value in data set [3] (setting [6]) came out at 86. The same molecule came in with a log partition coefficient (logP) in data set [4] of 1.82.

For the molecule `c1cncc(C2CC3CCN2CC3)c1` (racemic) [Sample No. 1, (+/−)-2-(3-pyridyl)-1-azabicyclo[2.2.2]octane], in data set [1] (setting [6]), the “Dopamine Release Ecmax” value stood at 40. For the same molecule, the 50% effective concentration (EC50) in data set [1] (setting [7]) turned out to be 2 nM; in data set [2] (86Rb+ efflux, TE671/RD cells, read-out: Muscle Effect EC50), 59 nM; in data set [3] (setting [8]), 1100 nM. In data set [2], the “Muscle Effect Ecmax” value is reported as 110. Moreover, the “Ganglion Effect Ecmax” value in data set [3] (setting [6]) is reported as 85. Also, the lipophilicity (logP) in data set [4] is 1.26.

Consider `CN1CCC[C@H]1c1cccnc1` [C-1, (S)-(−)-nicotine, reference compound], for which, in data set [1], the “Dopamine Release Ecmax” value was 100. The “Ganglion Effect Ecmax” value in data set [3] is reported as 100.

`c1cncc(C2C3CCN2CC3)c1` (stereo not drawn) [Sample No. 5, 7-(3-pyridyl)-1-azabicyclo[2.2.1]heptane] showed an inhibitory constant (Ki) in data set [5] of 7 nM. In addition, the EC50 in data set [1] (Rattus norvegicus) turned out to be 4 nM. In data set [1] (setting [6]), the “Dopamine Release Ecmax” value came out at 93. Besides, in data set [2], the “Muscle Effect Ecmax” value is 130. In data set [3] (setting [6]), the “Ganglion Effect Ecmax” value was determined as 120. This molecule came in with a lipophilicity (logP) in data set [4] of 0.93.

With `Brc1cncc(C2CC3CCN2CC3)c1` (racemic) [Sample No. 2, (+/−)-2-(5-bromo-3-pyridyl)-1-azabicyclo[2.2.2]octane], the concentration for a half-maximal effect (EC50) in data set [1] (Rattus norvegicus) is 2 nM; in data set [2], 3000 nM; in data set [3], 3000 nM. Besides, in data set [1] (setting [6]), the “Dopamine Release Ecmax” value amounted to 43. In addition, in data set [2], the “Muscle Effect Ecmax” value stood at 133. Moreover, the “Ganglion Effect Ecmax” value in data set [3] (setting [6]) stood at 106. In addition, the logP in data set [4] came to 2.05.

`c1cncc([C@H]2C[C@@H]3CCN2C3)c1` (relative stereo) [Sample No. 3, exo 2-(3-pyridyl)-1-azabicyclo[2.2.1]heptane]: the EC50 came out at 6 nM in data set [1] (Rattus norvegicus) and 150 nM in data set [3]. The “Dopamine Release Ecmax” value in data set [1] (setting [6]) worked out at 130. Also, the “Muscle Effect Ecmax” value in data set [2] worked out at 130. Moreover, the “Ganglion Effect Ecmax” value in data set [3] (setting [6]) was 100. Also, the logP in data set [4] came out at 0.94.

`Cl.Cl.Cl.Nc1cncc(C2CC3CCN2CC3)c1` (stereo not drawn) [Sample No. 6, 2-(5-amino-3-pyridyl)-1-azabicyclo[2.2.2]octane trihydrochloride]: the Ki in data set [5] stood at 2.6 nM. In addition, the “Dopamine Release Ecmax” value in data set [1] (setting [6]) came to 43. The 50% effective concentration (EC50) in data set [1] (setting [7]) amounted to 7 nM; in data set [3] (setting [8]), 10000 nM. Moreover, in data set [2], the “Muscle Effect Ecmax” value amounted to 100. Besides, in data set [2] (muscle effects vs dopamine release), the “amounts causing muscle effects relative to those required to cause dopamine release” value is “many times”. The “amounts causing effects upon ganglia relative to those required to cause dopamine release” value in data set [3] (ganglia effects vs dopamine release) is “many times”. Also, the “Ganglion Effect Ecmax” value in data set [3] (setting [6]) amounted to 75. In data set [4], this molecule displayed a lipophilicity (logP) of 0.48.

`c1cncc([C@@H]2C[C@@H]3CCN2C3)c1` (relative stereo) [Sample No. 4, endo-2-(3-pyridyl)-1-azabicyclo[2.2.1]heptane]: the values for the 50% effective concentration (EC50) in data set [1] (Rattus norvegicus) and in data set [3] were 33 nM and 150 nM, respectively. The “Dopamine Release Ecmax” value in data set [1] (setting [6]) is given as 114. In addition, the “Muscle Effect Ecmax” value in data set [2] was found to be 130. For the same molecule, the “Ganglion Effect Ecmax” value in data set [3] (setting [6]) is 100. Further, in data set [4], the logP came out at 0.94.

With `CC(C)Oc1cncc(C2CC3CCN2CC3)c1.Cl.Cl` (stereo not drawn) [Sample No. 8, 2-(5-isopropoxy-3-pyridyl)-1-azabicyclo[2.2.2]octane dihydrochloride], in data set [3] (setting [6]), the “Ganglion Effect Ecmax” value is listed as 94. This molecule gave a log partition coefficient (logP) in data set [4] of 1.76.
